# Measurements as given in publication PMC8303886, “Polyphenylglyoxamide-Based Amphiphilic Small Molecular Peptidomimetics as Antibacterial Agents with Anti-Biofilm Activity” (International Journal of Molecular Sciences, 2021).
# Where “and” joins values, the source holds several entries; their conditions need not be identical. Identical values can stand only once. Like-named read-outs stand apart in the source and are kept apart here.
# Key:
# [1] = test system: pre-established S. aureus biofilms; parameters: method as in PMID 27405275; conditions: 4× MIC; cited from earlier work
# S. aureus (SA38) = experiment: Minimum inhibitory concentration (MIC) assay against S. aureus; type: cell-based, Staphylococcus aureus; conditions: Staphylococcus aureus
# E. coli (K12) = experiment: Minimum inhibitory concentration (MIC) assay against E. coli; type: cell-based; conditions: Escherichia coli
# P. aeruginosa (PAO1) = experiment: Minimum inhibitory concentration (MIC) assay against P. aeruginosa; type: cell-based; conditions: Pseudomonas aeruginosa
# [2] = test system: pre-established S. aureus biofilms; experiment: Disruption of pre-established S. aureus biofilms (crystal violet assay); type: cell-based, Staphylococcus aureus
# Protocol: As bacterial biofilms are one of the major challenges in treating bacterial infection, the ability of the synthesised peptidomimetics to disrupt pre-established biofilms was investigated.
# (§1) Bacterial cultures (S. aureus and E. coli) were cultured in MHB at 37 °C with shaking at 120 rpm for 24 h. The resulting bacterial culture was washed twice with MHB with centrifugation after each wash. The bacterial solution was then diluted with fresh MHB to a turbidity of OD660 = 0.1 in MHB (equivalent to 10^8 colony forming unit (CFU)/mL of bacteria), followed by diluting to 10^6 CFU/mL in MHB. A total of 200 µL of the bacterial solution was dispensed to wells in a flat-bottom 96-well plate (Costar). The biofilm was then grown in the plate at 37 °C for 24 h. After incubation, loosely bound cells were washed away with 1× phosphate-buffered saline (PBS, pH 7.4). The biofilms were then supplemented with different concentrations of peptidomimetics dissolved in DMSO and incubated at 37 °C with shaking at 120 rpm for a further 24 h. Biofilms adhered on the plate substratum were quantified, using crystal violet staining as described previously. The experiment was performed in triplicate.
# [3] = test system: S. aureus biofilm formation; experiment: Inhibition of S. aureus biofilm formation (crystal violet staining); type: cell-based, Staphylococcus aureus
# Protocol: In this assay, S. aureus was incubated in the presence of different concentrations of the tested peptidomimetics under a static condition. After overnight incubation, planktonic bacteria were removed, and the remaining biofilms were quantified, using crystal violet staining.
# S. aureus was cultured in Muller Hinton broth (MHB; Oxoid) at 37 °C with shaking at 120 rpm for 24 h. The resulting bacterial culture was washed twice with MHB with centrifugation after each wash. The bacterial solution was then diluted with fresh MHB to a turbidity of OD660 = 0.1 in MHB (equivalent to 10^8 colony forming unit (CFU)/mL of bacteria), followed by diluting to 10^6 CFU/mL in MHB. A total of 100 µL of the bacterial solution was added to wells of a 96-well plate (Costar; Sigma-Aldrich, St. Louis, MO, USA) containing 100 µL serially diluted peptidomimetics. After incubation at 37 °C for 24 h, loosely bound cells were washed away with 1× phosphate-buffered saline (PBS, pH 7.4). Biofilms adhered on the plate substratum were quantified, using crystal violet staining as described previously. Untreated bacteria were used as a negative control, where the percentage of biofilm mass reflected 100% biofilm growth. The experiment was performed in triplicate.
# [4] = test system: S. aureus cytoplasmic membrane; experiment: Cytoplasmic membrane permeability assay (diSC3-5 dye release); type: cell-based, Staphylococcus aureus; conditions: 1× and 2× MIC, read up to 15 min
# From the text: This dye readily partitions into and aggregates in bacterial cell membranes, quenching its own fluorescence. However, structural damage to the bacterial cell membrane causes a loss in the membrane potential, which results in the leakage of dye from the bacterial cell membrane into the medium and an increase in fluorescence intensity. By detecting changes in fluorescence intensity, the integrity of the bacterial cytoplasmic membrane can be monitored.
# Membrane potential sensitive dye diSC3–5 (3,3′-dipropylthiadicarbocyanine iodide), which penetrates inside bacterial cells depending on the membrane potential gradient of the cytoplasmic membrane, was used to determine the bacterial cytoplasmic membrane permeability following the procedure previously described with slight modification. Bacteria (S. aureus) were incubated in MHB with shaking at 37 °C for 16 h. After incubation, the bacteria were washed with 5 mM HEPES, supplemented with 20 mM glucose at pH 7.2 and diluted in the same buffer to an OD600 0.05–0.06 (equivalent to a final concentration of 10^7 CFU/mL bacteria). The diSC3–5 dye was added at 4 μM to the bacterial suspension. […] Fluorescence due to the release of dye was measured with a FLUOstar Omega (BMG Labtech) microplate reader at 5 min intervals at an excitation wavelength of 621 nm and an emission wavelength of 670 nm.
# [5] = test system: MRC-5 normal human lung fibroblasts; experiment: MTT cytotoxicity assay; type: cell-based; conditions: Homo sapiens, MRC5, 72 h, 72 h drug incubation, read-out: IC50 against MRC-5 normal human lung fibroblasts
# Protocol: The IC50 values of the tested peptidomimetics were determined from a dose-response curve. […] The therapeutic indices for each tested peptidomimetic against Gram-positive S. aureus and Gram-negative E. coli were calculated by dividing the IC50 value against human cells by the corresponding MIC value (Table 2).
# The toxicity of the peptidomimetics against normal human lung fibroblasts MRC-5 cells was measured, using an MTT (3-(4,5-dimethylthiazol-2-yl)-2,5-diphenyltetrazolium bromide) (Sigma Aldrich, St. Louis, MO, USA) colorimetric assay. The cells were cultured in minimal essential medium (MEM, Invitrogen) containing 10% foetal bovine serum (FBS). The cells were maintained at 37 °C in 5% CO2 as an adherent monolayer and was passaged upon reaching confluence by standard cell culture techniques. MRC-5 cells were seeded at 5000 cells/well in 96-well plates to ensure full confluence (quiescence) and left overnight to adhere to the plate wells. The adherent cells were treated with 1–500 μM of compounds by dissolving in DMSO and serially diluting with media. TY-01 was used as the positive control. The final concentration of DMSO was 0.5% (v/v). After the 72 h drug incubation, […] stock MTT solution (5 mg/mL) was added, and the cells were incubated for another 3.5–4 h. The MTT solution containing media was carefully aspirated without displacing the purple crystals from the bottom, and […] acid-isopropanol was added to all wells and mixed slowly by shaking with an orbital shaker to dissolve the dark blue crystals. […] The determination of IC50 values was performed using GraphPad Prism 7 (GraphPad, San Diego, CA, USA). Each experiment was performed in triplicate and was repeated in three independent experiments.
# Haemolysis assay = type: cell-based; conditions: washed human red blood cells
# Protocol: A total of 20 mL of human blood collected in EDTA coated tubes was transferred into a 50 mL centrifuge tube and centrifuged at 500× g (700) for 5 min. The supernatant plasma was discarded and an equal volume of 1× PBS was added. The washing was repeated five times with cells mixed by inversion. The washed pallet was then resuspended in 1:10 with PBS to yield an RBC concentration of ~5 × 10^8 RBC/mL. The peptidomimetics were serially diluted with PBS, with final concentrations ranging from 8 to 500 µM. Milli-Q water and 1× PBS were used as positive and negative controls. The cells were then incubated at 37 °C for 3 h. Following incubation, the suspension was centrifuged at 1100× g for 5 min. The final optical density was measured at 540 nm. The percentage of haemolysis was calculated, using the following equation. % haemolysis=(absorbance of test sample−absorbance of diluent)/(absorbance of positive control−absorbance of diluent)×100%
# [6] = test system: pre-established E. coli biofilms; experiment: Disruption of pre-established E. coli biofilms (crystal violet assay); type: cell-based, Escherichia coli; conditions: 2× MIC, 24 h treatment (64 μM for 17c)
# Protocol: as §1
# [7] = S. aureus SA38, read-out: MIC S. aureus
# [8] = in trypticase soy broth (TSB), Mueller Hinton broth (MHB) or cationic adjusted MHB, read-out: MIC S. aureus in different growth media
# [9] = highest concentration tested 250 μM
Molecule,disruption of pre-established S. aureus biofilms [1],MIC (S. aureus (SA38); [7]),MIC (S. aureus (SA38); [8]),MIC (E. coli (K12)),MIC (P. aeruginosa (PAO1)) [µg/mL],MIC (P. aeruginosa (PAO1); [9]) [µM],"disruption of pre-established S. aureus biofilms ([2]; 1× MIC, 24 h treatment)",inhibition of S. aureus biofilm formation ([3]; 0.5× MIC (sub-MIC)) [%],S. aureus cytoplasmic membrane disruption (increase in fluorescence intensity) [4],IC50 [5],"hemolysis at 3 h, 32 µM (Haemolysis assay) [%]","disruption of pre-established S. aureus biofilms ([2]; 4× MIC, 24 h treatment (32 μM for 17c)) [%]",disruption of pre-established E. coli biofilms [6] [%],inhibition of S. aureus biofilm formation ([3]; 2× MIC (16 μM for 17c)) [%],inhibition of S. aureus biofilm formation ([3]; 4× MIC) [%]
"LL-37: cathelicidin (LL-37), antimicrobial peptide in phase IIb clinical trials for the treatment of chronic leg ulcers (LLGDFFRKSKEKIGKEFKRIVQRIKDFLRNLVPRTES; Antibacterial peptide LL-37; UniProt P49913 134-170, looked up)",about 40%,,,,,,,,,,,,,,
"CCCCCCCCS(=O)(=O)Nc1ccc(-c2ccc(-c3ccccc3)cc2)cc1C(=O)C(=O)NCCC[N+](C)(C)C.[I-] [Compound 16d, N,N,N-Trimethyl-3-(2-(4-(octylsulfonamido)-[1,1′:4′,1″-terphenyl]-3-yl)-2-oxoacetamido)propan-1-aminium iodide]",,4 µM and 2.9 µg/mL,4 µM and 2.9 µg/mL,> 250 µM and > 180 µg/mL,> 180,> 250,no antibiofilm activity,35,least active compound,53.7 µM and 38.6 µg/mL,11,,,,
"CCCCCCCCCCCCS(=O)(=O)Nc1ccc(-c2ccccc2)cc1C(=O)C(=O)NCCC[N+](C)(C)C.[I-] [Compound 17c, 3-(2-(4-(Dodecylsulfonamido)-[1,1′-biphenyl]-3-yl)-2-oxoacetamido)-N,N,N-trimethylpropan-1-aminium iodide]",,8 µM and 5.6 µg/mL,8 µM and 5.6 µg/mL,32 µM,> 175,> 250,20–36%,56,,57.5 µM and 40.2 µg/mL,16,44,28,70,65
